Counter-ions that a name gives are not always drawn. Like-named read-outs stand apart in the source and are kept apart here.
Legend:
[1] = biological target: T1, [3H]-citalopram binding sites on rat cerebral cortical membranes (serotonin reuptake) (Rattus norvegicus, UniProt P31652); assay: [3H]-Citalopram binding assay
T1 construct: from tissue; host or cells: rat cerebral cortex membranes

[2] = displacement of [3H]-citalopram, rat cerebral cortical membranes, 37° C. for 90 minutes, read-out: Ki

T1 sequence (P31652 whole entry): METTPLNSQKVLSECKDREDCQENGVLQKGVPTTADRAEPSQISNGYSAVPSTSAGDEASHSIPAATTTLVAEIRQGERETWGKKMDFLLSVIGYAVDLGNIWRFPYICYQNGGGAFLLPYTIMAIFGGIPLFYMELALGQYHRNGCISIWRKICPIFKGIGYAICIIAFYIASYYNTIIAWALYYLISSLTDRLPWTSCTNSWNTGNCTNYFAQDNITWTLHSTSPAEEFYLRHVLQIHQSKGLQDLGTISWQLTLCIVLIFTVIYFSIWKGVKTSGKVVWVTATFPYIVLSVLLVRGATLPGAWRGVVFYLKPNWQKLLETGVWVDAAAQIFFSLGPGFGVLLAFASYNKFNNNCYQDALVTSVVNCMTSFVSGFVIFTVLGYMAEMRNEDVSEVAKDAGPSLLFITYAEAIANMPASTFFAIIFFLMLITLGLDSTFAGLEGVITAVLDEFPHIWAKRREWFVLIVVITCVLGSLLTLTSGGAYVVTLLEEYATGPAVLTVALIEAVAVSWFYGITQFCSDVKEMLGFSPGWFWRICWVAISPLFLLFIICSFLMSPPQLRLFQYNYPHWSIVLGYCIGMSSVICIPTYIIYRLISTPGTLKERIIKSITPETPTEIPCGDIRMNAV

NCC1C2CCC(CC2)C1c1ccc2ccccc2c1 (stereo not drawn) [trans-(3-Naphthalen-2-ylbicyclo[2.2 .2]oct-2-yl)methanamine]
Ki [1, 2]: < 0.1 µM

CN(C)C[C@H]1[C@H]2CC[C@H](C2)[C@@H]1c1ccc2ccsc2c1 (as salt: hydrochloride)
melting point: 240 to 242 °C

CN(C)C[C@H]1[C@H]2CC[C@H](C2)[C@@H]1c1ccc2cc(F)ccc2c1 (as salt: hydrochloride) [[(1S,2S,3S,4R)-3-(6-fluoro-2-naphthyl)bicyclo[2.2.1]hept-2-yl]-N,N-dimethylmethanamine]
melting point: 137 to 138 °C

CNCC1C2CCC(C2)C1c1ccc2ccccc2c1 (stereo not drawn) [trans-endo-N-methyl (3-naphthalen-2-ylbicyclo [2.2.1]hept-2-yl)methanamine]
Ki [1]: < 0.1 µM

CN(C)CC1C2CCC(C2)C1c1ccc2ccccc2c1 (stereo not drawn) [trans-endo-N,N-dimethyl(3-naphthalen-2-ylbicyclo[2.2.1]hept-2-yl)methanamine]
Ki [1]: < 0.1 µM

CN(C)C[C@H]1[C@H]2CC[C@H](C2)[C@@H]1c1ccc2cc(F)ccc2c1 [[(1S,2S,3S,4R)-3-(6-fluoro-2-naphthyl)bicyclo[2.2.1]hept-2-yl]-N,N-dimethylmethanamine]
Ki [1]: < 0.1 µM

Cc1csc2ccc([C@@H]3[C@H]4CC[C@H](C4)[C@H]3CN(C)C)cc12 (as salt: hydrochloride) [N,N-dimethyl[(1R,2R,3R,4S)-3-(3-methyl-1-benzothien-5-yl)bicyclo[2.2.1]hept-2-yl]methanamine]
melting point: 250 to 252 °C

CN(C)C[C@H]1[C@H]2CC[C@H](C2)[C@@H]1c1cc2ccc(F)cc2s1 [[(1S,2S,3S,4R)-3-(6-fluoro-1-benzothien-2-yl)bicyclo[2.2.1]hept-2-yl)-N,N-dimethylmethanamine]
Ki [1, 2]: < 0.1 µM

CN(C)CC1C2CCC(C2)C1c1ccc2ccccc2c1 (stereo not drawn) (as salt: hydrochloride) [trans-endo-N,N-dimethyl(3-naphthalen-2-ylbicyclo[2.2.1]hept-] [trans-endo-N,N-dimethyl(3-naphthalen-2-ylbicyclo[2.2.1]hept-2-yl)methanamine]
melting point: 249 to 250 °C

CN(C)CC1C2CCC(C2)C1c1ccc2ccccc2c1 (stereo not drawn) (as salt: hydrochloride) [cis- N,N-dimethyl(3-naphthalen-2-ylbicyclo[2.2.1]hept-2-yl)m] [cis-N,N-dimethyl (3-naphthalen-2-ylbicyclo[2.2.1]hept-2-yl)methanamine]
melting point: 255 to 257 °C

CN(C)C[C@H]1[C@H]2CC[C@H](C2)[C@@H]1c1csc2cc(F)ccc12 [[(1S,2S,3S,4R)-3-(6-fluoro-1-benzothien-3-yl)bicyclo[2.2.1]hept-2-yl]-N,N-dimethylmethanamine]
Ki [1, 2]: < 0.1 µM

Cc1csc2ccc([C@@H]3[C@H]4CC[C@H](C4)[C@H]3CN(C)C)cc12 [N,N-dimethyl[(1R,2R,3R,4S)-3-(3-methyl-1-benzothien-5-yl)bicyclo[2.2.1]hept-2-yl]methanamine]
Ki [1, 2]: < 0.1 µM

Source: US6384281B1, “3-bicycloaryl-2-aminomethyl bicycloalkanes as serotonine reuptake inhibitors” (Eli Lilly and Company, priority 1999, dated 2002)
